According to US12582614B2, “Composition for preventing, alleviating or treating sarcopenia, containing D-ribo-2-hexulose as active ingredient” (KYUNGPOOK NATIONAL UNIVERSITY INDUSTRY-ACADEMIC COOPERATION …, priority 2021, dated 2026):

Assays:
Type in all cases: in vivo, C57BL/6J male mice
TNF-α, IL-4, IL-1β, IL-6 = test: Plasma inflammatory cytokine levels; details: between the groups (YC, NC, DRH)
Experimental: (§1) For cytokine analysis, plasma cytokines (TNF-α, IL-1β, and IL-4) were measured with a Merck Millipore product (MCYTOMAG-70K, Merck, USA). Plasma (30 μL) from each mouse was analyzed in duplicate. Hormone analysis was performed using a cortisol and testosterone parameter assay kit (R&D Systems, USA).

aged mice [1] = test: Weights of quadriceps, anterior tibialis and gastrocnemius tissues; details: per 100 g body weight, DRH group vs NC group
Experimental: (§2) Specifically, a negative control group (NC, n=7, American Institute of Nutrition AIN-93G Semisynthetic diet); a D-ribo-2-hexulose-treated group (D-ribo-2-hexulose; DRH, n=7; a portion of cellulose in AIN-93G was replaced with 3% D-ribo-2-hexulose). […] The dose of D-ribo-2-hexulose was set at 3% based on previous animal studies. In the previous studies, the dose of D-ribo-2-hexulose was determined to be 3% in order to investigate a biological effect at a lower dose than the dose. During the experiment, the mice had free access to distilled water, and the food intakes and body weights of the mice were measured weekly, and blood glucose was measured once every 4 weeks. All animal experiments were approved by the Animal Research Ethics Committee of KyungPook National University (Approval Number: KNU-2020-109).

[2] = Testosterone and cortisol levels
Experimental: as §1

GSH, PON, GR = test: Antioxidant enzyme activity in liver and plasma; details: DRH supplementation; decrease in NC vs YC
Experimental: To analyze antioxidant activity, superoxide dismutase (SOD) activity was measured in an alkaline state by pyrogallol autoxidation using a modified method of Marklund et al. Also, catalase (CAT) activity was measured using a modified method of Aebi et al. Paraoxonase (PON) activity was measured using a modified method of Mackness et al. in order to measure an increase in absorbance of p-nitrophenol. Glutathione reductase (GR) activity was measured using a modified method of Pinto and Bartley, which was used to measure NADPH oxidation. Total glutathione (GSH) content was measured using a modified method of Ellman et al.

[3] = system: Mitochondrial respiratory chain complexes; test: BN-PAGE of mitochondrial respiratory chain complexes; details: quadriceps mitochondria, vs NC group
Experimental: Mitochondria were isolated from the quadriceps muscle using the Potter-Elvehjem method. To extract respiratory SCs, a sample buffer cocktail was prepared using 8 μL of digitonin (Invitrogen, USA) per 50 μg of protein, 4×5 μL of a sample buffer (Invitrogen, USA) per 50 μg of protein, and 7 μL of water per 50 μg of protein. Thereafter, the solution was mixed with mitochondria. The BN-PAGE run and transfer were performed. An Ox-Phos Rodent WB antibody cocktail (Invitrogen, USA) was reacted at room temperature for 2 hours. Then, a secondary antibody solution Alk-Phos (Invitrogen, USA) was reacted at room temperature for an hour. Immunoreactive bands were developed using chromogen (BCIP/NBT). Then, the bands in a final state were checked.

[4] = system: CISH, CerS1, Adiponectin, Adipsin, CIDEC, Haptoglobin, Neuronatin, SCD1; test: mRNA sequencing of gastrocnemius tissue (differentially expressed genes); details: vs NC group, FC cutoff 2 or more, p < 0.05
[5] = Muscle and liver glycogen and fasting blood glucose
Experimental: as §2

aged mice [6] = test: Left hind leg thickness (digital calipers); details: week 12, DRH group vs NC group
Experimental: The thicknesses of left hind legs were measured using Bluetec digital calipers (Korea, BLUETEC, BD500) every 4 weeks during the experiment period, and the leg thickness was divided by the body weight of each mouse in order to minimize differences between individuals (mm/100 g× body weight).

myostatin = test: IHC analysis of muscle tissue, myostatin; details: gastrocnemius muscle fibers, increase in NC vs YC
Experimental: For morphological tissue observation, parts of liver and muscle tissues were fixed with a 10% formaldehyde solution for 24 hours. Thereafter, the samples were subjected to replacement with the same solution twice, dehydrated twice with ethanol, embedded in paraffin, and treated with poly-L-lysine to prepare tissue slices having a thickness of 5 μm. For morphological analysis, among the prepared tissue sections, the liver tissue was stained with H&E and MT, and the muscle tissue was stained with H&E and Sirius red, and magnified 200 times under an optical microscope. For IHC analysis, the muscle tissue was stained with IGF-1 and Myostatin, and then observed under an optical microscope.

Question: Which “level of inflammatory cytokine IL-1β” value (TNF-α, IL-4, IL-1β, IL-6) does the source give for `O=C(CO)[C@H](O)[C@H](O)[C@H](O)CO` [DRH, D-ribo-2-hexulose] here?
Answer: not significantly different

Question: And the “level of inflammatory cytokine IL-4” value (TNF-α, IL-4, IL-1β, IL-6)?
Answer: not significantly different

Question: What about the “level of inflammatory cytokine IL-6” value (TNF-α, IL-4, IL-1β, IL-6) of the same molecule?
Answer: not significantly different

Question: What about the “level of inflammatory cytokine TNF-α” value (TNF-α, IL-4, IL-1β, IL-6) of the same molecule?
Answer: not significantly different

Question: What about the “weight of the left anterior tibialis” value (aged mice [1]) of the same molecule?
Answer: significantly increased

Question: And the “weights of the right and left quadriceps” value (aged mice [1])?
Answer: significantly increased

Question: What about the cortisol level ([2]; DRH group) of the same molecule?
Answer: decreased

Question: And the testosterone level ([2]; DRH group vs NC group)?
Answer: did not show a significant difference

Question: And the “liver GR activity” value (GSH, PON, GR)?
Answer: increased

Question: And the “liver GSH-Px activity” value (GSH, PON, GR)?
Answer: increased

Question: And the “liver PON activity” value (GSH, PON, GR)?
Answer: increased

Question: What about the “plasma PON activity” value (GSH, PON, GR) of the same molecule?
Answer: increased

Question: What about the “mitochondrial respiratory chain Complex IV” value [3] of the same molecule?
Answer: significantly increased

Question: What about the “Adiponectin expression (mRNA-seq)” value [4] of the same molecule?
Answer: down-regulated

Question: What about the “Adipsin expression (mRNA-seq)” value [4] of the same molecule?
Answer: down-regulated

Question: And the “CIDEC expression (mRNA-seq)” value [4]?
Answer: down-regulated

Question: What about the “CISH expression (mRNA-seq)” value [4] of the same molecule?
Answer: up-regulated

Question: And the “CerS1 expression (mRNA-seq)” value [4]?
Answer: up-regulated

Question: And the “Haptoglobin expression (mRNA-seq)” value [4]?
Answer: down-regulated

Question: And the “Neuronatin expression (mRNA-seq)” value [4]?
Answer: down-regulated

Question: What about the “SCD1 expression (mRNA-seq)” value [4] of the same molecule?
Answer: down-regulated

Question: What about the “fasting blood glucose level” value ([5]; at 12 weeks, DRH group vs NC group) of the same molecule?
Answer: significantly decreased

Question: And the liver glycogen content ([5]; between the groups)?
Answer: not significantly different

Question: And the muscle glycogen content ([5]; quadriceps, between the groups)?
Answer: not significantly different

Question: And the “thicknesses of the left hind legs” value (aged mice [6])?
Answer: significantly increased

Question: What about the “expression level of myostatin” value (myostatin) of the same molecule?
Answer: suppressed this increase to the level of the YC group
